The target in experiment [1] is T1, IGF-1R (Homo sapiens (Human), UniProt P08069). The experiment is described as follows: Example B-1: IGF-1R Assay (PC3 cells, IGF1 stimulation, AlphaLISA). Particulars: 200 ng/mL IGF1 stimulation, read-out: Biological Activity against IGF-1R IC50. In kind it is cell-based. A digest of the protocol:
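PC3 cells were serum-starved 2 h, treated with serially diluted compounds for 2 h, then stimulated with IGF1 (200 ng/mL final) for 30 min. Lysates were read by AlphaLISA; % inhibition was calculated relative to vehicle and EC80 controls, with IC50 values binned into ranges.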
Target sequence in this assay (P08069 31-1367): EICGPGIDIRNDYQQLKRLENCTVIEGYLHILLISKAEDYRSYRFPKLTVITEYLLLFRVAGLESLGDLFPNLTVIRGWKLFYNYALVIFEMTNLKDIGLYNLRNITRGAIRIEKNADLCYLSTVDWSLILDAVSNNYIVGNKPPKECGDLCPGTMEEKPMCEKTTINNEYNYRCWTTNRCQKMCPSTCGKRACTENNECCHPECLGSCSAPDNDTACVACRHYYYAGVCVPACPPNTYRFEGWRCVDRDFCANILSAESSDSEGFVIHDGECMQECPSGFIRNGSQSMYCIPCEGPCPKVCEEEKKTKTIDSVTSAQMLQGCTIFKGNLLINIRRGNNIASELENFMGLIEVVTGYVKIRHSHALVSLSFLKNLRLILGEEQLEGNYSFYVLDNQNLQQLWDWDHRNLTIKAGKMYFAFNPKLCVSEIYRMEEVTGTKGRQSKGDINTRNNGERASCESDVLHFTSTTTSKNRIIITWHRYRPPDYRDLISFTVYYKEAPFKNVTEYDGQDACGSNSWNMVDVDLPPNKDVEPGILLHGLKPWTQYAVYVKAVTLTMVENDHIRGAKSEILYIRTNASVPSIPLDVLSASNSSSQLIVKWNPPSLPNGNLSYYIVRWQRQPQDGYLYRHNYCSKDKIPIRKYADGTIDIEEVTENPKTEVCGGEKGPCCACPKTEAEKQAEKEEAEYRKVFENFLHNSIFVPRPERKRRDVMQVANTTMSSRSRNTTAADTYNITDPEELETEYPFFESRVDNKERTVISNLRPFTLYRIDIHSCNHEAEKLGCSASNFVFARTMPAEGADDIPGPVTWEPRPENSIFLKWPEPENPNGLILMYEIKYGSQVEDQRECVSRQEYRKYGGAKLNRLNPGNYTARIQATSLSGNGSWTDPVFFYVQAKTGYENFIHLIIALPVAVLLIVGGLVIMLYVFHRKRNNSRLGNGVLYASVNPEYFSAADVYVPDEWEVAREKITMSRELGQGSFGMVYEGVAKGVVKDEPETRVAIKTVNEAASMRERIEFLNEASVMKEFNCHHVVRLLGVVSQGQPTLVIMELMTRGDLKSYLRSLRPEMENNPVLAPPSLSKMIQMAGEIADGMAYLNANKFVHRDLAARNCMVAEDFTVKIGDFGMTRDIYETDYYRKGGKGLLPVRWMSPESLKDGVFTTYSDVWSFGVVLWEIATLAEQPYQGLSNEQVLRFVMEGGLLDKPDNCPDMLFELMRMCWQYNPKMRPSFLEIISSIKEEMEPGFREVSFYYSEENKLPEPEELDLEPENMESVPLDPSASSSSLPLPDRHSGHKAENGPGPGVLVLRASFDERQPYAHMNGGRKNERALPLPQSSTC

Experiment [2] has as its target T1, IGF-1R. The experiment is described as follows: Example B-2: IGF-1R Assay (PathHunter cell lines, EC80 agonist challenge). In kind it is cell-based. The settings on record: read-out: IC50 (Biological Activity against IGF-1R). A digest of the protocol: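 PathHunter cells were pre-incubated with compound for 60 min at 37° C. (1% vehicle), then challenged with EC80 agonist for 3 hours at room temperature. Chemiluminescent detection followed after 1 h. Percent inhibition was calculated relative to EC80 and vehicle controls, and IC50 values were binned into categories.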
Target sequence in this assay (P08069 31-1367, species assumed): as the sequence (P08069 31-1367) above

As usually defined, the IC50 is the concentration that gives 50% inhibition.

On to `COc1cc(N2CCN(CC(F)F)CC2)ncc1Nc1nccc(Nc2cc3cccc(F)c3[nH]c2=O)n1` [Compound 217, 3-(2-{6-[4-(2,2-difluoroethyl)-1-piperazinyl]-4-methoxy-3-pyridylamino}-4-pyrimidinylamino)-8-fluoro-1,2-dihydro-2-quinolinone], for which the IC50 at IGF-1R [1] is 500 to 2000 nM; at IGF-1R [2], > 10000 nM.

For `CN(C)CC1COc2ccc(Nc3nccc(Nc4cnc5ccc(Cl)cc5c4)n3)cc2O1` (stereo not shown) [Compound 142, N4-(6-chloroquinolin-3-yl)-N2-(3-((dimethylamino)methyl)-2,3-dihydrobenzo[b][1,4]dioxin-6-yl)pyrimidine-2,4-diamine], the IC50 at IGF-1R [1] and on IGF-1R [2] was 500 to 2000 nM in each case.

As to `CN(C)CC1COc2ncc(Nc3nccc(Nc4cnc5ccc(Cl)cc5c4)n3)cc2O1` (stereo not shown) [Compound 500, 4-(6-chloro-3-quinolylamino)-2-{2-[(dimethylamino)methyl]-2,3-dihydro-1,4-dioxa-5-aza-7-naphthylamino}pyrimidine], the IC50 on IGF-1R [1] is 2000 to 10000 nM; at IGF-1R [2] it was 500 to 2000 nM.

Turning to `COc1nc(C2CCN(CC#N)CC2)ccc1Nc1nccc(Nc2cc3cccc(F)c3[nH]c2=O)n1` [Compound 212, (4-{5-[4-(8-fluoro-2-oxo-1,2-dihydro-3-quinolylamino)-2-pyrimidinylamino]-6-methoxy-2-pyridyl}-1-piperidyl)acetonitrile], the IC50 was ≤ 500 nM on IGF-1R [1] and 500 to 2000 nM on IGF-1R [2].

On to `COc1cc(Nc2nccc(Nc3cnc4ccccc4c3)n2)ccc1O[C@H]1CC[C@H](N(C)C)CC1` [Compound 17, 2-{3-methoxy-4-[(1r,4r)-4-(dimethylamino)cyclohexyloxy]phenylamino}-4-(3-quinolylamino)pyrimidine], for which the IC50 on IGF-1R [1] and at IGF-1R [2] was ≤ 500 nM each time.

On to `COc1cc(Nc2nccc(Nc3cnc4ccccc4c3)n2)ccc1N1CCN(C)CC1` [Compound 94, 2-[3-methoxy-4-(4-methyl-1-piperazinyl)phenylamino]-4-(3-quinolylamino)pyrimidine], for which the IC50 at IGF-1R [1] and at IGF-1R [2] was ≤ 500 nM each time.

Take `CN(C)CC(=O)N1CCOc2cc(Nc3nccc(Nc4cnc5cc(F)c(F)cc5c4)n3)ccc21` [Compound 152, 1-(7-((4-((6,7-difluoroquinolin-3-yl)amino)pyrimidin-2-yl)amino)-2,3-dihydro-4H-benzo[b][1.4]oxazin-4-yl)-2-(dimethylamino)ethan-1-one]: the half-maximal inhibitory concentration (IC50) at IGF-1R [1] and at IGF-1R [2] was ≤ 500 nM each time.

Regarding `COc1cc(Nc2nccc(Nc3cnc4ccccc4c3)n2)ccc1O[C@H]1C[C@@H](N(C)C)C1` [Compound 204, 2-{3-methoxy-4-[(1s,3s)-3-(dimethylamino)cyclobutoxy]phenylamino}-4-(3-quinolylamino)pyrimidine], the IC50 at IGF-1R [1] and at IGF-1R [2] was ≤ 500 nM throughout.

Take `COc1cc(Nc2nccc(Nc3cc4cc(Cl)ccc4[nH]c3=O)n2)ccc1O[C@H]1C[C@H](N(C)C)C1` [Compound 109, 6-chloro-3-(2-{3-methoxy-4-[(1r,3r)-3-(dimethylamino)cyclobutoxy]phenyl-amino}-4-pyrimidinylamino)-1,2-dihydro-2-quinolinone]: the IC50 at IGF-1R [1] was ≤ 500 nM; at IGF-1R [2], 500 to 2000 nM.

Regarding `COc1cc(Nc2nccc(Nc3cnc4ccccc4c3)n2)ccc1N1CCC(N2CCOCC2)CC1` [Compound 3, 2-[3-methoxy-4-(4-morpholino-1-piperidyl)phenylamino]-4-(3-quinolylamino)pyrimidine], the IC50 at IGF-1R [1] and at IGF-1R [2] was ≤ 500 nM each time.

Regarding `CN(C)CC1COc2cc(Nc3nccc(Nc4cnc5ccc(C(F)F)cc5c4)n3)ccc2O1` (stereo not shown) [Compound 497, 4-[6-(difluoromethyl)-3-quinolylamino]-2-{2-[(dimethylamino)methyl]-2,3-dihydro-1,4-benzodioxin-6-ylamino}pyrimidine], the IC50 on IGF-1R [1] and on IGF-1R [2] was ≤ 500 nM in each case.

`COc1cc(Nc2nccc(Nc3cc4cccc(F)c4[nH]c3=O)n2)ccc1C1CCOCC1` [Compound 219, 8-fluoro-3-{2-[3-methoxy-4-(tetrahydro-2H-pyran-4-yl)phenylamino]-4-pyrimidinylamino}-1,2-dihydro-2-quinolinone]: the IC50 on IGF-1R [1] was ≤ 500 nM; on IGF-1R [2], > 10000 nM.

Consider `COc1cc([C@H]2CC[C@@](C)(O)CC2)ccc1Nc1nccc(Nc2cc3cccc(F)c3[nH]c2=O)n1` [Compound 216, 8-fluoro-3-(2-{2-methoxy-4-[(1r,4r)-4-hydroxy-4-methylcyclohexyl]phenylamino}-4-pyrimidinylamino)-1,2-dihydro-2-quinolinone], for which the IC50 on IGF-1R [1] and on IGF-1R [2] was ≤ 500 nM each time.

Regarding `COc1cc(C2CCN(CC#N)CC2)ccc1Nc1nccc(Nc2cc3cccc(F)c3[nH]c2=O)n1` [Compound 213, (4-{4-[4-(8-fluoro-2-oxo-1,2-dihydro-3-quinolylamino)-2-pyrimidinylamino]-3-methoxyphenyl}-1-piperidyl)acetonitrile], the IC50 on IGF-1R [1] and on IGF-1R [2] was ≤ 500 nM in each case.

Values taken from patent US20250171431A1, “HETEROCYCLIC INHIBITORS OF IGF-1R FOR TREATMENT OF DISEASE” (HORIZON THERAPEUTICS IRELAND DAC, priority 2023, published 2025).
